Reference: patent US20230063457A1, “DNA-PK INHIBITING COMPOUNDS” (Provincial Health Services Authority, priority 2019, published 2023)

Test system: HCT116 cells
Assay: Stirred cell suspension assay, release of parent inhibitor from prodrug (HCT116)
Format: cell-based, human
Conditions: hypoxic conditions; 1% HCT116 cells by volume in media with 10% FBS at 37° C., FIG. 2
Procedure: Stirred Cell Suspension Assay
All compounds tested were dissolved in DMSO at 10 mM/L and further dilutions were made in culture medium. Final DMSO concentration was <0.3% (v/v). The human FaDu and HCT116 cells (ATCC) were cultured in MEM medium and 10% fetal calf serum (PAA). Cells were routinely maintained at densities of 0.2×10e6 cells per ml and incubated at 37° C. in a humidified 5% CO2, 95% air atmosphere. Cells were passaged twice a week, splitting back to obtain the low density. At the time of experiment, cells were trypsinized, counted and suspended at a density of 1% cells/volume in glass vials containing 2 ml stirred media and gassed at different pO2. After 30 minutes, test compounds were added at 25 μM/L and 150 μl samples were removed at intervals up to 4 hours. Each sample was split to test for (1) free drug and (2) total extraction and analysed using high performance liquid chromatography to measure the release of the parent inhibitor from the hypoxia activated prodrug.

CC(C)n1ncc(COc2cnc3cc(N4CCOCC4)nc(O[C@H]4CC[C@@H](n5ccnc5)CC4)c3c2)c1[N+](=O)[O-] [Prodrug 15]
conversion of prodrug to the respective parent compound: released the respective parent compound
